From US7897587B2, “Topical dermatological formulations and use thereof” (Nycomed US Inc., priority 2004, dated 2011) come the findings set out here.

This series is described as follows: Solubility of fluticasone propionate in propylene glycol, propylene carbonate and mixtures thereof. It is filed as physicochemical. Particulars: 25° C. The procedure:
In the drawing FIGURE this solubility data obtained at 25° C. is plotted as the dark line and the idealized (theoretical) solubility is plotted as the light line. In “ideal” solutions, the effect of each component is additive in a linear fashion. If solvent A has a property with a value of 50 and solvent B a value of 100 for the same property, an equal blend of A and B would be expected to give a value of 75 for that property. […] The lightly colored line represents “ideal” linear behavior. Since propylene glycol can solubilize about 10 times more drug than propylene carbonate, the “ideal” line slopes down strongly as we move from pure propylene glycol to pure propylene carbonate. […] Two important observations can be made.

`CCC(=O)O[C@]1(C(=O)SCF)[C@H](C)C[C@H]2[C@@H]3C[C@H](F)C4=CC(=O)C=C[C@]4(C)[C@@]3(F)[C@@H](O)C[C@@]21C` [Fluticasone propionate, 6α,9α-difluoro-17α(1-oxopropoxy)-11β-hydroxy-16α-methyl-3-oxo-androsta-1,4-diene-17β-carbothioic acid S-fluoromethyl ester]: the Fluticasone propionate solubility by setting is: (% propylene glycol/% propylene carbonate 0/100) 1.17 % w/w; (% propylene glycol/% propylene carbonate 12.5/87.5) 1.72 % w/w; (% propylene glycol/% propylene carbonate 25/75) 1.56 % w/w; (% propylene glycol/% propylene carbonate 50/50) 1.09 % w/w; (% propylene glycol/% propylene carbonate 75/25) 0.48 % w/w; (% propylene glycol/% propylene carbonate 100/0) 0.08 % w/w. Where the note is “all propylene glycol/propylene carbonate mixtures”, the “Measured solubility compared with ideal (linear, theoretical) solubility” value is “the measured solubility exceeds the ideal solubility”. Further, the “Measured solubility in blends compared with solubility in single solvent” value (blends containing about 99 to 45% propylene carbonate) is given as “the measured solubility exceeds the solubility in propylene glycol”. For the same molecule, the “Drug solubilized by propylene glycol relative to propylene carbonate” value (pure solvents) is recorded as “about 10 times”.
